Data from patent publication US8835447B2, “Method for treating androgen receptor positive cancers” (priority 2009, dated 2014).
“Also recorded” adds a separate entry of the source.

Experiments:
PSA levels = conditions: Phase I clinical trial, castration resistant PCa; cited from earlier work
AR LBD = molecular target: T1, AR LBD (Homo sapiens, UniProt P10275); conditions: cited from earlier work
T1 sequence (P10275 1-920): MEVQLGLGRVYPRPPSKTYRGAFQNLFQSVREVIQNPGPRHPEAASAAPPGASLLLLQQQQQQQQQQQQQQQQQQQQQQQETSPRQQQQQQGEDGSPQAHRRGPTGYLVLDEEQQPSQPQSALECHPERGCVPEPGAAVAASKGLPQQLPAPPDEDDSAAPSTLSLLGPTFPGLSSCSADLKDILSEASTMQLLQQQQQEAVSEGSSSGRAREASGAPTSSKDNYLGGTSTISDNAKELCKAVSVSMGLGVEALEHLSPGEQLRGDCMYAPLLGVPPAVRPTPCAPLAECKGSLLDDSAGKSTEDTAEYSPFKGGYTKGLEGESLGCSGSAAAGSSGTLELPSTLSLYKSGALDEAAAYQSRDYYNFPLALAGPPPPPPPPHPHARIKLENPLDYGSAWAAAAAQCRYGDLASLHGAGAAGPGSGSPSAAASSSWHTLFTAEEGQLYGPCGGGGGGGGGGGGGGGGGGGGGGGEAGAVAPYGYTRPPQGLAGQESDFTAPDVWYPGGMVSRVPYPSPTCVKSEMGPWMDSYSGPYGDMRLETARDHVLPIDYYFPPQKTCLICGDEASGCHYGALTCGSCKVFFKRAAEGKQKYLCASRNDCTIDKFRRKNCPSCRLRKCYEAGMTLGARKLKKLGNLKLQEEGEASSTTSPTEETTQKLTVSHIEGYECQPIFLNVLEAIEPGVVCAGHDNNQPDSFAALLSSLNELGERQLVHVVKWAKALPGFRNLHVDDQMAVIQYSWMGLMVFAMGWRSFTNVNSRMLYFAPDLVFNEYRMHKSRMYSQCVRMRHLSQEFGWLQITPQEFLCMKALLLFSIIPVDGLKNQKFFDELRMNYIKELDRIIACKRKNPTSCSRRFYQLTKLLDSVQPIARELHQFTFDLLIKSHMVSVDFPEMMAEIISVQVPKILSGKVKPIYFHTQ

CWR22R cells = experiment: Cell cycle distribution by propidium iodide staining; type: cell-based, human
Protocol: Analysis of cell cycle distribution was based on staining of DNA content by propidium iodide. 10^5 cells were removed from culture dishes using trypsin, washed with PBS and resuspended in 300 μl 3% BSA in PBS, followed by addition of […] 70% ethanol. Cells were kept at −20° C. for several hours and then stained with 10 μg/ml propidium iodide in the presence of 30 μg/ml RNase A for 2 hrs at 37° C. DNA content was assessed using a FACS Calibur instrument and CellQuest software (Becton Dickinson, Franklin Lakes, N.J.).
To test this possibility, we assessed the cell cycle distribution of CWR22R cells treated with both categories of compounds. […] Therefore, different subsets of compounds inhibiting AR-dependent transcription in androgen-independent PCa cells cause either growth arrest or apoptosis in these cells. Whether a compound causes growth arrest or apoptosis is not determined by the potency of the compound as an inhibitor of AR-dependent transcription (i.e., FIG. 2B).

[1] = tested on: AR-expressing PCa cell lines (LNCaP, C4-2, CWR22R); experiment: Toxicity to AR-expressing PCa cell lines (colony formation / dose-dependent growth inhibition); type: cell-based, human
Protocol: (§1) Cell Colony Assay: Cells were plated in 24-well plates at a density allowing 6-7 days of exponential growth before confluency. Medium and compound was replaced every 48 hours to minimize the effect of potential compound instability. After 7 days of incubation in the presence of compound, cells were fixed and stained with methylene blue, followed by extraction of the stain with 1% SDS and spectrophotometry at 650 nm. Each assay was run in triplicate and the difference between control and compound-treated wells was determined using Student's t-test.
Dose-dependent inhibition of cell growth: Cells were plated at 1×10^3 cells per well in 96-well plates. Compounds were added in a dose range from 1 to 20000 nM in two-fold increments. Each dose was tested in triplicate. Controls were 0.1% DMSO (no effect on cell viability) and 50 μM 9-aminoacridine (complete cell death). Cells were incubated for 6 days and then fixed and stained with methylene blue, followed by extraction of the stain with 1% SDS and spectrophotometry at 650 nm. The assay was run two times and, based on the results, the inhibitory concentration of compound suppressing cell growth by 50% as compared to DMSO (IC50) was calculated by the sigmoid approximation method using CalcuSyn software (Biosoft, Chembridge, UK). Confidence intervals were calculated for each sigmoid.
This Example provides a description of the effect of the selected compounds on the growth of PCa cells. To test the toxicity of the identified AR inhibitors towards cells of different origins, we performed colony formation assays using a single dose of each compound (10 μM) on several PCa (LNCaP, C4-2, CWR22R and DU145) and two non-PCa (HT1080 and HeLa) cell lines (FIG. 2A). […] These compounds were not weaker inhibitors of AR transcriptional activity in CWR22R or C4-2 cells than compounds that inhibited growth of the cells. […]

Microsomal stability = type: in vitro ADME; conditions: 1 hour incubation with rat microsomes
Protocol: Five hit compounds, representing both the ARTIS and ARTIK categories (c6, c11, c17, c52 and c85), were selected for in vivo tests based on all of the previous assays. Compound c5 was rejected due to very low microsomal stability (<5% after 1 hour incubation with rat microsomes). The toxicity of the compounds was evaluated in a dose escalation assay in which male NIH Swiss mice (n=4) received three sequential intraperitoneal (i.p.) injections of each compound delivered in 3 day intervals. The first dose was 20-fold higher than the in vitro IC50 (20×IC50) for the compound in CWR22R cells recalculated based on mouse weight (see Example 1) and the second and third doses were 50×IC50 and 100×IC50, respectively. On the day after the last injection, half of the mice in each group were sacrificed for gross pathology examination and collection of blood for serum biochemistry assays, which include total protein, glucose, bilirubin, and creatinine levels, activity of liver enzymes, and ion concentrations. The remaining mice were sacrificed and evaluated similarly 7 days after the last compound injection. […] A minor decrease in serum glucose concentration (70-80% of control) was observed on the day after the last compound injection in almost all mice, but glucose levels were normal a week later (data not shown). […]

[2] = tested on: HT1080, HeLa and DU145 cells; experiment: Colony formation assay, non-PCa and AR-negative PCa cells; type: cell-based, human; conditions: 10 μM, 7 days
Protocol: as §1
This Example provides a description of the effect of the selected compounds on the growth of PCa cells. To test the toxicity of the identified AR inhibitors towards cells of different origins, we performed colony formation assays using a single dose of each compound (10 μM) on several PCa (LNCaP, C4-2, CWR22R and DU145) and two non-PCa (HT1080 and HeLa) cell lines (FIG. 2A). […] These compounds were not weaker inhibitors of AR transcriptional activity in CWR22R or C4-2 cells than compounds that inhibited growth of the cells.

CNC(=O)c1ccc(N2C(=S)N(c3ccc(C#N)c(C(F)(F)F)c3)C(=O)C2(C)C)cc1F [MDV3100]
PSA levels in patients (PSA levels): demonstrated efficacy in decreasing PSA levels

CNC(=O)c1ccc(N2C(=S)N(c3ccc(C#N)c(C(F)(F)F)c3)C(=O)C23CCC3)cc1F [RD162]
partial agonist activity on AR (AR LBD): not displayed
binding to the AR LBD (AR LBD; non-competitive antagonists): bind with high affinity to the AR LBD

O=C1N=C(Nc2cccc(Cl)c2Cl)SC1=Cc1ccco1 [c5]
changes in cell cycle distribution (CWR22R cells; increase in G1, decrease in S phase): cell cycle arrest
cells with sub-G1 DNA content (apoptotic) (CWR22R cells; propidium iodide FACS): did not result in appearance of cells with sub-G1 DNA content
toxicity towards AR-expressing PCa cell lines ([1]; colony formation, 10 μM, three AR-expressing PCa cell lines): different degrees of toxicity; also recorded: suppress growth of all
degree of toxicity to PCa cells (killing vs reduced growth) ([1]; dose-dependent toxicity, by day 7): reduced growth as compared to untreated control cells, but not obvious cell death
microsomal stability, compound left (Microsomal stability): < 5%
growth of / toxicity towards non-PCa cells or AR-negative PCa cells (DU145) [2]: no toxicity
